The assay deals with T1, Brunfelsia calycina POD (purified 40-kDa anthocyanin degradation-related peroxidase; BcPrx01 suggested).
T1 construct: native POD purified from petals, close to 40 kDa
Description: guaiacol/H2O2 peroxidase activity assay with purified POD, absorbance at […] nm. It counts as biochemical, Brunfelsia pauciflora var. calycina (Brunfelsia calycina).

By pIC50 is commonly meant −log10 of the IC50, conventionally taken in molar units. A high value points to a small IC50.

pIC50: −log10 of the molar value.

As to `O=C(O[C@@H]1Cc2c(O)cc(O)cc2O[C@H]1c1cc(O)c(O)c(O)c1)c1cc(O)c(O)c(O)c1` [GCG, gallocatechin-3-gallate], the negative-log IC50 (pIC50) was 4.53. With `O=C(O[C@@H]1Cc2c(O)cc(O)cc2O[C@@H]1c1ccc(O)c(O)c1)c1cc(O)c(O)c(O)c1` [ECG, epicatechin-3-gallate] the figure was 4.67.

The record behind these values is paper PMC5412285, “Characterization of Active Anthocyanin Degradation in the Petals of Rosa chinensis and Brunfelsia calycina Reveals the Effect of Gallated Catechins on Pigment Maintenance” (International Journal of Molecular Sciences, 2017).
